“Also recorded” adds a separate entry of the source.
Legend:
[1] = system: HDAC1, HDAC2, HDAC3 and HDAC6; experiment: HDAC selectivity of the inhibitor panel; assay type: biochemical; conditions: HDAC isoform(s) the inhibitor is selective for
Experimental: Compounds for testing are diluted in DMSO to 50 fold the final concentration and a ten point three fold dilution series is made. The compounds are diluted in assay buffer (50 mM HEPES, pH 7.4, 100 mM Kill, 0.001% Tween-20, 0.05% BASE, 20 μM TEC) to 6 fold their final concentration. The HDAC enzymes (purchased from BPS Biosciences) are diluted to 1.5 fold their final concentration in assay buffer. The dipeptide substrate and trypsin at 0.05 μM final concentration are diluted in assay buffer at 6 fold their final concentration. The final enzyme concentrations to use in these assays are 3.3 ng/ml (HDAC1), 0.2 ng/ml (HDAC2), 0.08 ng/ml (HDAC3) and 2 ng/ml (HDAC6). The final substrate concentrations to use are 16 μM (HDAC1), 10 μM (HDAC2), 17 μM (HDAC3) and 14 μM (HDAC6). Five μ1 of compound and 20 μl of enzyme are added to wells of a black, opaque 384 well plate in duplicate. Enzyme and compound are incubated together at room temperature for 10 min. Five μ1 of substrate is added to each well, the plate is shaken for 60 seconds and placed into a Victor 2 microliter plate reader. The development of fluorescence is monitored for 60 min. and the linear rate of the reaction is calculated. The IC50 is determined using Graph Pad Prism by a four parameter curve fit.
The following HDAC inhibitors were used to evaluate the relationship between HDAC selectivity and the viability of AML cell lines upon exposure to the HDAC inhibitor: […]

HL-60, Kasumi-1 and NB4 [2] = experiment: Surface CD11b by FACS in three AML cell lines; assay type: cell-based; conditions: single agent; 72 hours; all three cell lines
Experimental: (§1) Briefly, the AML cell lines HL-60 (FIGS. 4A and 4D), Kasumi-1 (FIGS. 4B and 4E) and NB4 (FIGS. 4C and 4F) were treated with the indicated concentrations of compounds. In FIGS. 4A-C, surface levels of myeloid differentiation marker CD11b were determined by FACS at 72 hours post-treatment. […] In FIGS. 4D-F, apoptosis was assessed by flow cytometry by measuring Annexin V binding and cellular permeability to propidium iodide at 96 hours post-treatment. The relative fraction of cells that were alive, in early apoptosis, in late apoptosis, or dead was then determined.
(§2) FIGS. 10A-F show the treatment of the following AML cell lines: Kasumi-1 (FIGS. 10A and 10B), HL-60 (FIGS. 10C and 10D) and NB4 (FIGS. 10E and 10F), with indicated doses of compounds. FIGS. 10A, 10C, and 10E show surface levels of myeloid differentiation marker CD11b determined by FACS at 72 h post-treatment. […] FIGS. 10B, 10D, and 10F show the assessment of apoptosis by FACS (see, e.g., FIG. 9C).

HL-60 [3] = experiment: Surface CD11b by FACS in HL-60; assay type: cell-based; conditions: combination with azacitidine vs single agent, 96 hours
Experimental: as §1
(§3) FIGS. 5A-F show the combination of HDAC inhibitors and azacitidine in the HL-60 cell line. Briefly, cells were treated with DMSO, Compound B, Compound A, or Compound E as a single agent or in combination with azacitidine for 96 hours. Surface levels of CD11b (FIGS. 5A, 5C, 5E) and apoptosis (FIGS. 5B, 5D, 5F) was assessed by flow cytometry, as in FIG. 4.

Kasumi-1 [4] = experiment: Surface CD11b by FACS in Kasumi-1; assay type: cell-based; conditions: combination with azacitidine vs single agent, 72 hours
Experimental: as §1
(§4) Briefly, cells were treated with DMSO, Compound B, Compound A, or Compound E as a single agent or in combination with azacitidine at the indicated concentrations. Surface levels of CD11b were determined 72 hours post-treatment (FIGS. 6A, 6C, 6E), and apoptosis was assessed 96 hours post-treatment (FIGS. 6B, 6D, 6F).

MV4-11 [5] = experiment: Surface CD11b by FACS in MV4-11; assay type: cell-based; conditions: 72 h
Experimental: (§5) The distribution of cells among G0/G1 phase, G2/M phase, S phase and subG1 phase was determined. […] The relative fraction of cells that were live, in early apoptosis, in late apoptosis, or dead was then determined.
(§6) MV4-11 cells were treated with Compound E or with Compound A or with Compound B as single agent or in combination with azacitidine at indicated doses. FIGS. 12A, 12C, and 12E show surface levels of CD11b determined by FACS at 72 h post-treatment. FIGS. 12B, 12D, and 12F show assessment of apoptosis by FACS (as in, e.g., FIG. 9C) at 96 h post-treatment.
(§7) FIG. 17. […] (A) Indicated AML cell lines were exposed to increasing concentrations of Compound J to confirm their sensitivity to HDAC1/2 inhibition. (B-D) MV4-11 cells were treated with indicated concentrations of compounds. (B) Surface levels of myeloid differentiation marker CD11b were determined by FACS at 72 h post-treatment. […] (C) Cell cycle was assessed by flow cytometry after incorporation of EdU and staining with Far Red at 72 h post-treatment. The distribution of cells among G0/G1 phase, G2/M phase, S phase and subG1 phase was determined. […] (D) Apoptosis was assessed by flow cytometry via measuring Annexin V binding and cellular permeability to propidium iodide at 96 h post-treatment. The relative fraction of cells that were live, in early apoptosis, in late apoptosis or dead was then determined.

HL-60, Kasumi-1 and NB4 [6] = experiment: Apoptosis by Annexin V / propidium iodide flow cytometry in three AML cell lines; assay type: cell-based; conditions: single agent; 96 hours; HL-60, Kasumi-1, NB4
Experimental: as §1, §2

HL-60 [7] = experiment: Apoptosis by Annexin V / propidium iodide flow cytometry in HL-60; assay type: cell-based; conditions: 96 hours; for apoptotic cells: combination with azacitidine vs single agent
Experimental: as §1, §3

Kasumi-1 [8] = experiment: Apoptosis by Annexin V / propidium iodide flow cytometry in Kasumi-1; assay type: cell-based; conditions: 96 hours; for apoptotic cells: combination with azacitidine vs single agent
Experimental: as §1, §4

NB4 = experiment: Apoptosis by Annexin V / propidium iodide flow cytometry in NB4; assay type: cell-based; conditions: 96 hours; for apoptotic cells: combination with azacitidine vs single agent
Experimental: as §1
FIGS. 7A-F show the combination of HDAC inhibitors and azacitidine in the NB4 cell line. Briefly, cells were treated with DMSO, Compound B, Compound A, or Compound E as single agent or in combination with azacitidine at the indicated concentrations. Surface levels of CD11b were determined 72 hours post-treatment (FIGS. 7A, 7C, 7E), and apoptosis was assessed 96 hours post-treatment (FIGS. 7B, 7D, 7F).

MV4-11 [9] = experiment: Apoptosis by Annexin V / propidium iodide flow cytometry in MV4-11; assay type: cell-based; conditions: 96 h; for induction of apoptosis: combination with azacitidine; for apoptosis relative to control cells: single agent
Experimental: as §5, §6, §7

| Structure (SMILES) | Selectivity [1] | percentage of CD11b positive cells (HL-60, Kasumi-1 and NB4 [2]) | CD11b positive cells (HL-60 [3]) | CD11b positive cells (Kasumi-1 [4]) | percentage of CD11b positive cells (MV4-11 [5]; combination with azacitidine) | percentage of CD11b positive cells (MV4-11 [5]; single agent) | apoptosis relative to control cells (HL-60, Kasumi-1 and NB4 [6]) | apoptotic cells (HL-60 [7]) | apoptotic cells (Kasumi-1 [8]) | apoptotic cells (NB4) | induction of apoptosis (MV4-11 [9]) | apoptosis relative to control cells (MV4-11 [9]) | apoptosis (HL-60 [7]; single agent) | apoptosis (Kasumi-1 [8]; single agent) | apoptosis (NB4; single agent) |
| --- | --- | --- | --- | --- | --- | --- | --- | --- | --- | --- | --- | --- | --- | --- | --- |
| O=C(CCCCCCNC(=O)c1cnc(N(c2ccccc2)c2ccccc2)nc1)NO [Compound A, 2-(diphenylamino)-N-(7-(hydroxyamino)-7-oxoheptyl)pyrimidine-5-carboxamide] | HDAC6 (1/2/3) | increased the percentage of CD11b positive cells | synergistic increases of CD11b positive cells | synergistic increases of CD11b positive cells | further increase of percentage of CD11b positive cells | increased the percentage of CD11b positive cells | increase in apoptosis relative to control cells; also recorded: increased apoptosis relative to control cells | synergistic increases | synergistic increases | synergistic increases of apoptotic cells | enhanced induction of apoptosis greater than either single agent | increase in apoptosis relative to control cells |  |  |  |
| O=C(CCCCCCNC(=O)c1cnc(N(c2ccccc2)c2ccccc2Cl)nc1)NO [Compound B, 2-((2-chlorophenyl)(phenyl)amino)-N-(7-(hydroxyamino)-7-oxoheptyl)pyrimidine-5-carboxamide] | HDAC6 (1/2/3) | increased the percentage of CD11b positive cells | synergistic increases of CD11b positive cells | synergistic increases of CD11b positive cells | further increase of percentage of CD11b positive cells |  | increase in apoptosis relative to control cells | synergistic increases | synergistic increases | synergistic increases of apoptotic cells | enhanced induction of apoptosis greater than either single agent |  |  |  |  |
| Nc1ccc(-c2cccs2)cc1NC(=O)c1ccc2c(c1)cc(C1CC1)n2CCN1CCOCC1 [Compound E, N-(2-amino-5-(thiophen-2-yl)phenyl)-2-cyclopropyl-1-(2-morpholinoethyl)-1H-indole-5-carboxamide] | selective for HDAC1/2 | increased the percentage of CD11b positive cells | synergistic increases of CD11b positive cells | synergistic increases of CD11b positive cells | further increase of percentage of CD11b positive cells | increased the percentage of CD11b positive cells | increased apoptosis relative to control cells | synergistic increases | synergistic increases | synergistic increases of apoptotic cells | enhanced induction of apoptosis greater than either single agent | increase in apoptosis relative to control cells | induced apoptosis | induced apoptosis | minimal effects |
